Measurements as given in patent US20060040871A1, “Bacterial transforming agent” (priority 2003, published 2006).
Like-named read-outs stand apart in the source and are kept apart here.

Key:
[1] = test system: MRSA; format: cell-based, Staphylococcus aureus; conditions: for MIC of methicillin: glycine 0.02M [0.15%]
Text: Stored frozen plasma was pooled from five subjects.
Human plasma may bind or otherwise inactivate foreign substances and good activity in plasma is indicative of good in vivo activity.

[2] = test system: vancomycin- and gentamicin-resistant Enterococcus faecium; assay: microbe, parasite or virus in culture; format: cell-based
Text: The agents of the present invention are not limited to the reversal of resistance in Staphylococcus. The test strains in Table 5 are patient-isolates of vancomycin- and gentamicin-resistant Enterococcus faecium. At the time of isolation, they were commonly resistant to all clinically useable antimicrobial agents.

[3] = test system: MRSA; assay: Screening on Isosensitest agar with incorporated BTA and 10 μg methicillin discs; format: cell-based, Staphylococcus aureus; conditions: BTA 0.01-1.0% in Isosensitest agar; 10 μg methicillin discs; reference MRSA (type strain), OMRSA, EMRSA-1, EMRSA-16
Experimental: To find substances related to GBE that might have increased potency, various substances, including those with additional glycine moieties and benzylates, have been screened. Screening was carried out using Isosensitest agar (Oxoid, UK) into which various levels of potential BTAs were incorporated at levels between 0.01 and 1.0%. The agar with incorporated BTA was then used in the manner of a standard antibiotic sensitivity test using 10 μg methicillin discs. The test organism was inoculated onto the agar surface at a concentration suitable to achieve confluent growth after 18 hours incubation at 30° C. After incubation, zone diameters were compared with that achieved by the control plate (Isosensitest alone) for each test organism.

[4] = test system: MRSA; format: cell-based, Staphylococcus aureus; conditions: 2% glycine; only in the presence of glycine

NCC(=O)O [Glycine, glycine]
reduction in activity in human plasma ([1]; 1% human plasma, approximation from Table 3): about 75%
MIC of methicillin ([1]; 5518 (EMRSA-1), +1% human plasma): 32 µg/mL
MIC of methicillin ([1]; 5518 (EMRSA-1), no plasma): 8 µg/mL
MIC of methicillin ([1]; L277, +1% human plasma): 32 µg/mL
MIC of methicillin ([1]; L277, no plasma): 8 µg/mL
MIC of methicillin ([1]; L278, +1% human plasma): 256 µg/mL
MIC of methicillin ([1]; L278, no plasma): 64 µg/mL
MIC of methicillin ([1]; L279, +1% human plasma): 256 µg/mL
MIC of methicillin ([1]; L279, no plasma): 64 µg/mL
MIC of methicillin ([1]; L280, +1% human plasma): 64 µg/mL
MIC of methicillin ([1]; L280, no plasma): 16 µg/mL
MIC of methicillin ([1]; L281, +1% human plasma): 32 µg/mL
MIC of methicillin ([1]; L281, no plasma): 8 µg/mL
MIC of methicillin ([1]; L282, +1% human plasma): 256 µg/mL
MIC of methicillin ([1]; L282, no plasma): 32 µg/mL
MIC of methicillin ([1]; L283, +1% human plasma): 128 µg/mL
MIC of methicillin ([1]; L283, no plasma): 32 µg/mL
MIC of methicillin ([1]; L284, +1% human plasma): 256 µg/mL
MIC of methicillin ([1]; L284, no plasma): 32 µg/mL
MIC of methicillin ([1]; L285, +1% human plasma): 256 µg/mL
MIC of methicillin ([1]; L285, no plasma): 32 µg/mL
MIC of methicillin ([1]; L286, +1% human plasma): 64 µg/mL
MIC of methicillin ([1]; L286, no plasma): 32 µg/mL
MIC of methicillin ([1]; L287, +1% human plasma): 128 µg/mL
MIC of methicillin ([1]; L287, no plasma): 32 µg/mL
MIC of methicillin ([1]; L288, +1% human plasma): 128 µg/mL
MIC of methicillin ([1]; L288, no plasma): 32 µg/mL
MIC of methicillin ([1]; L289, +1% human plasma): 256 µg/mL
MIC of methicillin ([1]; L289, no plasma): 32 µg/mL
MIC of methicillin ([1]; L290, +1% human plasma): 128 µg/mL
MIC of methicillin ([1]; L290, no plasma): 32 µg/mL
MIC of methicillin ([1]; L291, +1% human plasma): 64 µg/mL
MIC of methicillin ([1]; L291, no plasma): 32 µg/mL
MIC of methicillin ([1]; L292, +1% human plasma): 256 µg/mL
MIC of methicillin ([1]; L292, no plasma): 32 µg/mL
MIC of methicillin ([1]; L293, +1% human plasma): 128 µg/mL
MIC of methicillin ([1]; L293, no plasma): 32 µg/mL
MIC of methicillin ([1]; L294, +1% human plasma): 128 µg/mL
MIC of methicillin ([1]; L294, no plasma): 16 µg/mL
strains tested achieving the target MIC of vancomycin of 2 mg/l ([2]; 0.2M glycine, Table 5): 50%
MIC of vancomycin ([2]; ATCC 29212, glycine 0.02M): 4 µg/mL
MIC of vancomycin ([2]; ATCC 29212, glycine 0.2M): 2 µg/mL
MIC of vancomycin ([2]; BBC, glycine 0.02M): 16 µg/mL
MIC of vancomycin ([2]; BBC, glycine 0.2M): 4 µg/mL
MIC of vancomycin ([2]; E254, glycine 0.02M): 16 µg/mL
MIC of vancomycin ([2]; E254, glycine 0.2M): 4 µg/mL
MIC of vancomycin ([2]; E267, glycine 0.02M): 16 µg/mL
MIC of vancomycin ([2]; E267, glycine 0.2M): 4 µg/mL
MIC of vancomycin ([2]; E271, glycine 0.02M): 8 µg/mL
MIC of vancomycin ([2]; E271, glycine 0.2M): 2 µg/mL
MIC of vancomycin ([2]; E285, glycine 0.02M): 16 µg/mL
MIC of vancomycin ([2]; E285, glycine 0.2M): 2 µg/mL
MIC of vancomycin ([2]; E297, glycine 0.02M): 8 µg/mL
MIC of vancomycin ([2]; E297, glycine 0.2M): 2 µg/mL
MIC of vancomycin ([2]; GBC, glycine 0.02M): 8 µg/mL
MIC of vancomycin ([2]; GBC, glycine 0.2M): 4 µg/mL
MIC of vancomycin ([2]; S226, glycine 0.02M): 8 µg/mL
MIC of vancomycin ([2]; S226, glycine 0.2M): 4 µg/mL
MIC of vancomycin ([2]; S227, glycine 0.02M): 32 µg/mL
MIC of vancomycin ([2]; S227, glycine 0.2M): 4 µg/mL
MIC of vancomycin ([2]; S283, glycine 0.02M): 8 µg/mL
MIC of vancomycin ([2]; S283, glycine 0.2M): 2 µg/mL
MIC of vancomycin ([2]; S302, glycine 0.02M): 8 µg/mL
MIC of vancomycin ([2]; S302, glycine 0.2M): 4 µg/mL
MIC of vancomycin ([2]; S315, glycine 0.02M): 4 µg/mL
MIC of vancomycin ([2]; S315, glycine 0.2M): 1 µg/mL
MIC of vancomycin ([2]; S317, glycine 0.02M): 32 µg/mL
MIC of vancomycin ([2]; S317, glycine 0.2M): 4 µg/mL
MIC of vancomycin ([2]; S319, glycine 0.02M): 16 µg/mL
MIC of vancomycin ([2]; S319, glycine 0.2M): 4 µg/mL
MIC of vancomycin ([2]; S333, glycine 0.02M): 8 µg/mL
MIC of vancomycin ([2]; S333, glycine 0.2M): 2 µg/mL
MIC of vancomycin ([2]; S337, glycine 0.02M): 4 µg/mL
MIC of vancomycin ([2]; S337, glycine 0.2M): 2 µg/mL
MIC of vancomycin ([2]; S393, glycine 0.02M): 8 µg/mL
MIC of vancomycin ([2]; S393, glycine 0.2M): 2 µg/mL
MIC of vancomycin ([2]; S497, glycine 0.02M): 8 µg/mL
MIC of vancomycin ([2]; S497, glycine 0.2M): 2 µg/mL
MIC of vancomycin ([2]; S556, glycine 0.02M): 32 µg/mL
MIC of vancomycin ([2]; S556, glycine 0.2M): 2 µg/mL
MIC of vancomycin ([2]; WBC, glycine 0.02M): 8 µg/mL
MIC of vancomycin ([2]; WBC, glycine 0.2M): 4 µg/mL
transformation of MRSA (methicillin disc zone diameter versus control plate) [3]: transformed
transformation of MRSA into methicillin-sensitive strains [4]: transformed all MRSA into methicillin-sensitive strains
